“And” between values parts separate entries of the source, which are not always exact repeats. Equal values may be shown once. Read-outs that look alike come from different tables or passages of the source.

The target in one series is T1, LmPTR1 (Leishmania major, UniProt Q01782).
T1 sequence (Q01782 1-288): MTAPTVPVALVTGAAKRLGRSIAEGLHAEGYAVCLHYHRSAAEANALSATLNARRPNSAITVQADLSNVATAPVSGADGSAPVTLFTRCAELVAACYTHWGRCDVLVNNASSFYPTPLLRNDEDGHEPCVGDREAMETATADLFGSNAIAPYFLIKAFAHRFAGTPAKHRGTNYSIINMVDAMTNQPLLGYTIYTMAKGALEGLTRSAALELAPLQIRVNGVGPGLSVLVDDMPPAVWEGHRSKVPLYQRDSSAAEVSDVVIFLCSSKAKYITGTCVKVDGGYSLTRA
Briefly: LmPTR1 indirect (cytochrome c-coupled) enzyme assay. It counts as biochemical. The conditions noted are these: for IC50: indirect assay, triplicate, SD within ± 10% of the value. How it is done: The in vitro assays used in the current study were based on those reported in the literature. As PTR1 enzymes use dihydrobiopterin (H2B) as a substrate and also require NADPH for the reaction, the reduction of H2B to tetrahydrobiopterin by PTR1 is nonenzymatically linked with the reduction of cytochrome c in this assay, which is detected at 550 nm. The formation of cyt c Fe^2+ results in an increase in the photometric readout. TbPTR1 and LmPTR1 activity was assayed in a buffer containing 20 mM sodium citrate (pH 6.0). The final reaction mixture contained the test compound at a range of concentrations and TbPTR1/LmPTR1 (6.0 nM/12 nM), H2B (0.3 μM/3 μM), cytochrome c (100 μM/100 μM), and NADPH (500 μM/500 μM). The final assay volume was 50 μL in 384-well clear plates (Greiner Bio-One, 781101). Compound screening was performed by the addition of the compound to the assay plates (in 100% DMSO), followed by the addition of 45 μL Reaction Mix (enzyme, H2B cytochrome c in 20 mM sodium citrate buffer). A pre-read was made at 550 nm using an EnVision Multilabel Reader 2103 (PerkinElmer Inc., US), followed by incubation of the assay plates at 30 °C for 10 min. The reaction was initiated by the addition of 5 μL of NADPH (5 mM in ultrapure water) followed by kinetically reading the assay plates at 550 nm using the EnVision Multilabel Reader at 10, 20, 30, 40, and 50 min. The slope of each assay well was calculated. The screening data were analyzed using ActivityBase (IDBS), and for outlier elimination in the control wells, the 3-σ method was applied. Based on the slope, the data were normalized to the positive control methotrexate for TbPTR1/LmPTR1 (1 μM/50 μM, yielding 100% inhibition) and negative controls (1% DMSO, yielding 0% inhibition), and % inhibition was calculated for all samples. The measurement at time 0 min was used to flag optically interfering samples. Each compound was tested in triplicate, and the pIC50 value, standard deviation, Hill slope, and minimum and maximum signals for each dose–response curve were obtained using a 4-parameter logistic fit in the XE module of Activity Base (IDBS), as also reported previously. ,

Series [1] has as its system THP-1-derived macrophages. Briefly: Cytotoxicity assay (MTT) on THP-1-derived macrophages. It counts as cell-based, Human. Particulars: THP-1 CC50 vs T. brucei EC50. The protocol: Human leukemia cell line THP-1 (ATCC TIB202) cells were cultured in RPMI-1640 medium supplemented with 10% heat-inactivated fetal bovine serum (FBS), 2 mM L-glutamine, 100 IU/mL penicillin/streptomycin, and 20 mM HEPES. The cell line was maintained in a humidified incubator at 37 °C with 5% CO2. Subcultures were performed every 3 days in 20 mL of media at a concentration of 2 × 10^5 cells/mL in a T75 flask. All cell culture reagents were purchased from Lonza Bioscience (Morrisville, NC).
The cytotoxicity of the compounds on THP-1-derived macrophages was assessed using the colorimetric MTT assay (3-(4,5-dimethylthiazol-2-yl)-2,5-diphenyl tetrazolium bromide) as described elsewhere. THP-1 cells were suspended in RPMI complete medium at a density of 1 × 10^6 cells/mL, and 100 μL/well was seeded in a 96-well plate. The cells were differentiated into macrophages by adding 40 ng/mL of phorbol-myristate 13-acetate (PMA, Sigma, Saint Louis, MI, USA) for 24 h, followed by replacement with fresh medium for another 24 h. Subsequently, the cells were incubated with 100 μL of compounds, ranging from 100 to 12.5 μM, diluted in RPMI complete medium. Each condition was tested in triplicate. After 72 h of incubation at 37 °C with 5% CO2, the medium was removed, and 200 μL of 0.5 mg/mL MTT solution diluted in RPMI was added. The plates were incubated for an additional 4 h, after which 160 μL of the media was removed and replaced with 160 μL of 2-propanol. Absorbance was read at 570 nm using a Synergy 2 Multi-Mode Reader (Biotek, Winooski, VT, USA). Cytotoxicity was evaluated by presenting the CC50 (the concentration of the drug that reduces cell viability by 50%) interval or by determining the CC50 value through nonlinear regression analysis using GraphPad Prism version 8.1.1 for Windows (GraphPad Software, San Diego, CA, USA). Results represent the average of at least three independent experiments.

The next series has as its target T2, CYP2C9 (Homo sapiens, UniProt P11712).
T2 construct: purchased Promega; host or cells: baculovirus-infected insect cells
Briefly: Cytochrome P450 assay (P450-Glo), isoform 2C9. It is filed as in vitro ADME. An excerpt:
3A4. The Promega P450-Glo assay platform was used with microsomal preparations of
cytochrome P450s from baculovirus-infected insect cells. […]

T2 sequence (P11712 whole entry): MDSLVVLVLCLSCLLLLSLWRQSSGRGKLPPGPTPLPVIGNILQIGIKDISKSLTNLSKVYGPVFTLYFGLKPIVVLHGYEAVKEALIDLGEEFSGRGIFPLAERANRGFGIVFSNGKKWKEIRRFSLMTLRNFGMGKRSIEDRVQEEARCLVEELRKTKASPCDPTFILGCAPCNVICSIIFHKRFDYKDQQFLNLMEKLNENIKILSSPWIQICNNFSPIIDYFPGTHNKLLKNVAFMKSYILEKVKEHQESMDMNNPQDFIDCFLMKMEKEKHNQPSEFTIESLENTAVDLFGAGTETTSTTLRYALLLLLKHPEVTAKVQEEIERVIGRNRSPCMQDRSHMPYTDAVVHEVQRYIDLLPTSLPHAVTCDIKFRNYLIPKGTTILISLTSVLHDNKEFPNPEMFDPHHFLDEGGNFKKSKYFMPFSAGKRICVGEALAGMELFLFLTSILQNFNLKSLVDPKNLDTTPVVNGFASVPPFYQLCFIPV

In turn, `Nc1nc2ccc(C(=O)NCCc3ccc(Cl)c(Cl)c3)cc2s1` [Compound 1a, 2-amino-N-(3,4-dichlorophenethyl)benzo[d]thiazole-6-carboxamide] had an inhibition at 50 µM on LmPTR1 of 21 ± 2%. For the same molecule, the “Selectivity index toward THP-1 cells” value in series [1] is reported as “over 16”. Also, the “CYP 2C9 IC50” value on CYP2C9 is “max”.

As to `Nc1nc2ccc(C(=O)N(CCc3ccc(Cl)c(Cl)c3)C3CC3)cc2s1` [Compound 1b, 2-amino-N-cyclopropyl-N-(3,4-dichlorophenethyl)benzo[d]thiazole-6-carboxamide], at LmPTR1, the inhibition at 50 µM was 72 ± 4%; the IC50 is 39 µM and 38.9 µM. Further, the “Selectivity index toward THP-1 cells” value in series [1] is 5−10. Besides, the IC50 at CYP2C9 (read-out: CYP 2C9 IC50) is 5 µM.

Regarding `Nc1nc2ccc(C(=O)N(Cc3ccc(Cl)c(Cl)c3)C3CC3)cc2s1` [Compound 1c, 2-amino-N-cyclopropyl-N-(3,4-dichlorobenzyl)benzo[d]thiazole-6-carboxamide], on LmPTR1, the inhibition at 50 µM came out at 26 ± 5%. For the same molecule, on CYP2C9 (read-out: CYP 2C9 IC50), the IC50 stood at 48.3 µM.

`Nc1nc2ccc(CN(Cc3ccc(Cl)c(Cl)c3)C3CC3)cc2s1` [Compound 1d, 6-((cyclopropyl(3,4-dichlorobenzyl)amino)methyl)benzo[_d_]thiazol-2-amine] registered an inhibition at 50 µM against LmPTR1 of 38 ± 4%. The IC50 at CYP2C9 (read-out: CYP 2C9 IC50) stood at 8.8 µM.

The molecule `Nc1nc2ccc(C(=O)N(CCc3ccc(Cl)c(Cl)c3)c3ccccc3)cc2s1` [Compound 1e, 2-amino-N-(3,4-dichlorophenethyl)-N-phenylbenzo[d]thiazole-6-carboxamide] gave an inhibition at 50 µM at LmPTR1 of 31 ± 2%. Besides, the activity at 10 µM at CYP2C9 (human, at 10 µM compound concentration, read-out: CYP 2C9 % residual activity) is 35.3%.

On to `Nc1nc2ccc(C(=O)NCCc3ccccc3)cc2s1` [Compound 2a, 2-amino-N-phenethylbenzo[d]thiazole-6-carboxamide], for which the inhibition at 50 µM against LmPTR1 came out at 35 ± 1%. Besides, the IC50 at CYP2C9 (read-out: CYP 2C9 IC50) was 37.7 µM.

At LmPTR1, `Nc1nc2ccc(C(=O)NCCc3cccc(Cl)c3)cc2s1` [Compound 2b, 2-amino-N-(3-chlorophenethyl)benzo[d]thiazole-6-carboxamide] showed an inhibition at 50 µM of 48 ± 2% and an IC50 of 91.4 µM. This molecule yielded an IC50 on CYP2C9 of 35.2 µM.

The molecule `Nc1nc2ccc(C(=O)NCCc3ccc(Cl)cc3)cc2s1` [Compound 2c, 2-amino-N-(4-chlorophenethyl)benzo[d]thiazole-6-carboxamide] came in with an inhibition at 50 µM against LmPTR1 of 32 ± 2%. Moreover, the IC50 on CYP2C9 (read-out: CYP 2C9 IC50) is 9.6 µM.

On to `Nc1nc2ccc(C(=O)NCCc3cccc(Br)c3)cc2s1` [Compound 2d, 2-amino-N-(3-bromophenethyl)benzo[d]thiazole-6-carboxamide], for which the inhibition at 50 µM against LmPTR1 was determined as 57 ± 2%. Besides, on CYP2C9 (read-out: CYP 2C9 IC50), the IC50 was 74.5 µM.

On LmPTR1, `Nc1nc2ccc(C(=O)NCCc3ccc(Br)cc3)cc2s1` [Compound 2e, 2-amino-N-(4-bromophenethyl)benzo[d]thiazole-6-carboxamide] had an inhibition at 50 µM of 33 ± 1% and an IC50 of 78.8 µM. The IC50 on CYP2C9 (read-out: CYP 2C9 IC50) was determined as 3.6 µM.

At LmPTR1, `Nc1nc2ccccc2n1Cc1ccc(Cl)c(Cl)c1` [I, 1-(3,4-dichlorobenzyl)-1H-benzimidazol-2-amine, reference compound] showed an inhibition at 50 µM of 75 ± 1%. Also, the IC50 on CYP2C9 (read-out: CYP 2C9 IC50) was determined as 4.2 µM.

The record behind these values is PMC12516686, “Design of 2‑Aminobenzothiazole Derivatives Targeting Trypanosomatid PTR1 by a Multidisciplinary Fragment Hybridization Approach” (Journal of Medicinal Chemistry, 2025).
